Data published in US7652037B2, “Methods of lowering lipid levels in a mammal” (City Of Hope, priority 2003, dated 2010).
Entries after “also recorded” stand apart in the source; their conditions may differ.

What was measured:
STZ-Diabetic Rats [1] = assay: Total plasma/serum triglycerides and cholesterol in STZ-diabetic rats (Example 2); assay type: in vivo, rat; conditions: 32 weeks, towards levels of non-diabetic animals
Description: Male Sprague-Dawley rats (about 175 to 200 g) were adapted for one week prior to treatment, then rendered diabetic by intra-peritoneal injection of STZ (65 mg/kg in citrate buffer, pH 4.5) after an overnight fast. Control (non-diabetic) animals were injected with the buffer only. Diabetes was confirmed by measuring the plasma glucose concentrations 7 days after Streptozotocin (STZ)-injection. Only animals with a plasma glucose concentration greater than 20 mmol were classified as diabetic and used in the study. These diabetic rats were divided randomly into an untreated diabetic control group and a diabetic treatment group. The treatment group received an LR compound at 50 mg/l in their drinking water throughout the duration of the study (32 weeks for LR-90; 30 weeks for LR-9 and LR-74). All animals were housed individually and were given free access to food and water.
Blood (from the tail vein) and urine samples were collected from rats for glycemic control analysis and albuminuria measurements. Glycemia was monitored every 8 weeks by measuring plasma glucose and glycated hemoglobin. Plasma or serum also was tested for total cholesterol and total triglycerides. Progression of renal dysfunction was assessed by measuring urinary albumin to creatinine ratio (UA/Cr) and serum or plasma creatinine. […]

STZ-Diabetic Rats [2] = assay: Nitrotyrosine staining of kidney; assay type: in vivo, rat
Description: Nitrotyrosine, a marker for protein oxidation, was used as an index of oxidative tissue damage caused by reactive nitrogen species. Immunohistochemical detection of nitrotyrosine was performed as reported previously (Forbes et al., Diabetes 51:3274-3282, 2002) and followed in this study with little modification. Briefly, formalin-fixed kidney sections (5 μm thick), taken from representative rats from each treatment group at 32 weeks, were mounted on slides, dewaxed and hydrated. After incubation with Proteinase K for 10 minutes, sections were incubated in 3% hydrogen peroxide for 20 minutes, blocked with normal porcine serum for 20 minutes, and then stained with commercially available rabbit polyclonal anti-nitrotyrosine antibodies for 1 hour. After rinsing with DAKO rinse buffer, sections were incubated with biotinylated anti-rabbit IgG for 25 minutes, followed by incubation with avidin-biotin horseradish peroxidase complex for 25 minutes.

STZ-Diabetic Rats [3] = assay: AGE immunohistochemistry of kidney (6D12 anti-CML antibody); assay type: in vivo, rat
Description: For immunohistochemical AGE staining, formalin-fixed […] embedded sections (2 μm thick) were mounted on slides coated with 2-aminopropyltriethoxy silane, baked for 3 hours at 58° C., deparaffinized, rinsed with 3% hydrogen peroxide, and incubated with Proteinase K (0.5 mg/mL) for 5 minutes at room temperature. These sections were washed with rinse buffer and blocked with Protein Blocking Agent for 5 minutes and subsequently incubated with 6D12 anti-AGE mouse monoclonal antibody specific for CML for 30 minutes at room temperature. After washing with rinse buffer, the sections were incubated with EnVision™ with labeled polymer peroxidase-conjugated mouse anti-IgG for 30 minutes at room temperature, followed by detection with 3,3′-diaminobenzidine tetrahydrochloride solution as chromogen and 50% hematoxylin as counterstain.

STZ-Diabetic Rats [4] = assay: Kidney anatomy and histopathology (PAS, trichrome, Picrosirius red, TEM); assay type: in vivo, rat
Excerpt: To quantitate glomerulosclerosis (defined as glomerular basement membrane thickening, mesangial hypertrophy, and capillary occlusion), kidney sections were stained with periodic acid Schiff (PAS) reagent. A total of 150 glomeruli were randomly chosen from each rat kidney (four different kidneys per treatment) and carefully graded for sclerosis, by a blinded evaluator. The degree of sclerosis in each glomerulus was graded subjectively on a scale of 1 to 4 as follows: grade 1, sclerotic area less than 25%; grade 2, sclerotic area 25-50%; grade 3, sclerotic area 51-75%; and grade 4, sclerotic area more than 75%. The glomerulosclerotic index (GSI) then was calculated using the following formula: GSI=Σ^4i=1 Fi (I), where Fi is the percentage of glomeruli in the rat with a given score of (I). See Wilkinson-Berka et al., Diabetes 51:3283-3289, 2002. To quantitate glomerulosclerosis, kidney sections were stained with periodic acid Schiff (PAS) reagent.
Cellular infiltrates were identified in the renal interstitium from 5 μm-thick kidney sections stained with PAS. Infiltrates in each kidney sample were graded as follows: + (patchy and light), ++ (patchy and dense), +++ (diffuse and dense with aggregates of neutrophils in tubules or in interstitium) also in a blinded manner. For collagen deposition staining in the kidneys, paraffin sections were randomly chosen from kidneys from each treatment group and stained with Masson's trichrome. Briefly, the sections were deparaffined, hydrated with water, and immersed in Mordant in Boiuin's solution for 10 minutes. The sections then were rinsed in water and stained with Mayer's hematoxylin for 6 minutes. After rinsing in water, Biebrich scarlet-acid fuchsin was added for 2 minutes, rinsed, phosphomolybdic-phosphotungstic solution added for 15 minutes, followed by aniline blue solution for 10 minutes. After rinsing the sections with water, glacial acetic acid was added for 20 seconds and then the slides were dehydrated with 95% ethanol. With this method, blue and red colors indicate collagen and cytoplasm staining, respectively. […]

[5] = Superoxide production, methylglyoxal with N-α-acetyl-lysine, WST-1 assay
Description: The superoxide radical scavenging activity of the compounds was evaluated using the WST-1 method described in Ukeda et al., Anal. Sci. 18:1151-1154, 2002. Briefly, methylglyoxal, was incubated with or without N-α-acetyl-lysine in 0.05 M chelex-treated sodium phosphate buffer, pH 7.4, in the presence of various concentrations of the inhibitor compounds. The production of superoxide was monitored spectrophotometrically at 438 nm, and compared with superoxide dismutase and Tiron, two known superoxide radical scavengers.

Row | Compound | reduction of serum cholesterol (STZ-Diabetic Rats [1]) [%] | reduction of serum triglycerides (STZ-Diabetic Rats [1]) [%] | nitrotyrosine staining in renal cortical tubules (STZ-Diabetic Rats [2]) | AGE staining in kidney glomeruli and cortical tubules (STZ-Diabetic Rats [3]) | basement membrane thickening (TEM photographs) (STZ-Diabetic Rats [4]) | cellular infiltrates in the renal interstitium (STZ-Diabetic Rats [4]) | collagen deposited inside the glomeruli and the tubulointerstitium (Picrosirius red) (STZ-Diabetic Rats [4]; 32 weeks) | effect on superoxide production [5]
1 | methylene bis(4,4′-(2-chlorophenylureidophenoxyisobutyric acid) [LR-90] | 50 | 50 | decreased the overall oxidative damage | visibly reduced | reduced basement membrane thickening | prevented cell infiltration; also recorded: no neutrophils were detected | reduced | –
2 | CC(Oc1cccc2cccnc12)C(=O)O (centres unmarked) [LR-74, 2-(8-quinolinoxy) propionic acid] | – | – | – | – | – | – | – | little or no effect
